Reference: patent US12291522B2, “Galectin-3 inhibitors” (BRISTOL-MYERS SQUIBB COMPANY, priority 2020, dated 2025)
pIC50: −log10 of the molar value. Read-outs that look alike come from different tables or passages of the source.

Tests used:
[1] = molecular target: T1, hCRBN (NanoLuc-CRBN fusion construct in HEK-293 cells) (Homo sapiens, UniProt Q96SW2); experiment: CRBN BRET Target Engagement; format: cell-based; conditions: NanoLuc-CRBN transfected HEK-293 cells, BRET with CRBN Probe
T1 construct: expressed in transfected cells; host or cells: HEK-293
Procedure: CRBN BRET Target Engagement (hCRBN IC50 (μM))
NanoLuc-CRBN fusion construct was transfected in HEK-293 cells using FuGENE HD (Promega) according to the manufacturer's protocol. In brief, Nluc-CRBN was diluted into Transfection Carrier DNA (Promega) 1:10 (mass/mass), to which FuGENE HD was 1:3 (μg DNA:μL FuGENE HD). One part (vol) of DNA:FuGENE HD complexes were combined with 20 parts (vol) of HEK-293 cells suspended at a density of […]. Cells were incubated for ˜20 hr at 37° C./5% CO2. Following transfection, cells were washed and resuspended at 200,000 cells/mL in OptiMEM without phenol red (Gibco).
For BRET measurements, cells were seeded in a 384-well nonbinding surface plate (Corning) plate for a final count of 10,000 cells/well. Compounds were dissolved at 10 mM in dimethylsulfoxide (DMSO) and evaluated at eleven concentrations using a high concentration of […]. CRBN Probe was used for equilibrium measurements, employing a final concentration of approximately EC50-80. For live-cell measurements, 20 nM of CRBN Probe was added. For the live-cell assay conditions, the plates were incubated for 2 hours at 37° C./5% CO2. NanoBRET NanoGlo Substrate and Extracellular Nanoluc Inhibitor (Promega) were added according to manufacturer's guidelines. For lytic cell measurements, digitonin was added to the cells to a final concentration of 50 μg/mL and 20 nM of CRBN Probe was added. To measure NanoBRET in permeabilized cells, extracellular Nluc inhibitor was omitted during the detection step. For all BRET experiments, the Envision 2015 (Perkin Elmer) equipped with a BRET2 Enh mirror, BRET 647 nM/75 nM Bandwidth and BC703 460 nM/80 nM Bandwidth filters was used for readouts. Each read was integrated for 0.5 s.
To determine compound potency (IC50), BRET ratios for each dilution series was first normalized to a % Inhibition value via Equation 1, where “S” represents Sample BRET, “B” represents Background BRET, and “T” represents Total BRET. In this equation, the background control (B) consists of NanoLuc-CRBN expressing cells and no CRBN Probe. The total BRET Ratio (T) consists of NanoLuc-CRBN expressing cells, CRBN Probe, and an amount of DMSO at a concentration equivalent to that added when testing compounds.
Following normalization, the percent inhibition values are plotted as a function of compound concentration and fit to Equation 2. […]

[2] = molecular target: His-tagged recombinant human Gal-3 (hGal-3) (Homo sapiens, UniProt P17931); experiment: Gal-3 HTRF assay (His-tagged hGal-3 / B-ASF); format: binding; conditions: 15 nM hGal-3, 15 nM B-ASF
Procedure: ASSAY BUFFER Composition: 25 mM HEPES, 100 mM NaCl, 0.005% Tween 20, 0.05% BSA prepared in sterile water (all reagents from Sigma).
• Positive Control: 100% DMSO (1 μL)+His-tagged hGal-3 (20 μL)+B-ASF (20 μL)+Anti-His Terbium Antibody (5 μL)+Strep d2 Antibody (5 μL). • Negative Control: 100% DMSO (1 μL)+His-tagged hGal-3 (20 μL)+Anti His Terbium Antibody (5 μL)+Strep d2 Aantibody (5 μL). Stocks Preparation:
PROTOCOL: The Gal-3 assays were performed in 384 white Opti plates in three replicates at room temperature with gentle shaking at 250-300 rpmFrom the original stocks, […] working stock concentrations of His-tagged recombinant human Gal-3 (hGal-3) and that of B-ASF were prepared. From the working stock, 20 μL of hGal-3 (15 nM) and 20 μL B-ASF (15 nM) were added to the plates. In Negative Control, only hGal-3 was added. A concentration range of 50× working stocks were prepared for the compounds in 100% DMSO. Aliquots of luL of the compounds were added to the wells and pre-incubated with 20 μL hGal-3 per well for 30 minutes Then 20 μL B-ASF wereadded and incubated for another 1 hour. To detect the signal, 5 μL (final conc. of 1.0 nM) terbium labelled Anti-His antibody was added and incubated for 30 min followed by adding 5 μL (final conc. of 20 nM) Streptavidin d2 and incubation for another 1 hour. The assay signal was detected using HTRF screen protocol (Excitation wavelength=340 nm, emission wavelength=615 nm/665 nm) on Envision 2104 Multilabel Reader. Data analysed using Toolset and Curve Master. Results are reported in the experimental section (IC50 in μM).

[3] = molecular target: T2, Gal3 (Human Galectin-3) in THP-1 cells (Homo sapiens, UniProt P17931); experiment: ELISA Gal3 Degradation Assay in THP-1 Cells; format: cell-based; conditions: 48 hours, culture media Gal3 by ELISA
T2 construct: host or cells: THP-1
Procedure: [formula] ELISA Gal3 Degradation Assay in THP-1 Cells
THP-1 cells (ATCC, Cat #TIB-202), a human monocyte cell line derived from leukemia were plated at 2E6 cells/mL in 200 uL/well of RPMI 1640 (ThermoFisher, Cat #11835) in 96-well plates. Cells were treated with DMSO as a control and various concentrations of compounds for 48 hours. After the treatment, the culture media were collected. The PBS washed cell pellets were lysed in Lysis Buffer (Cell Signaling, Cat #9803) supplemented with 1XProtease Inhibitor Cocktail (Cell Signaling, Cat #5872). Gal3 levels in culture media and cell lysates were quantified by ELISA assays (Human Galectin-3 DuoSet ELISA kit, R&D Systems, Cat #DY1154) according to manufacturer's instructions. The cell culture media were also used for the assessment of cellular toxicity (LDH Assay kit, R&D Systems, DY994). The IC50 (degradation concentration at 50%) values were calculated based on the cellular Gal3 protein levels using DMSO as the control.

[4] = test 1, read-out: Supernatant (IC50) test 1
[5] = test 2, read-out: Supernatant (IC50) test 2

T1 sequence (Q96SW2 whole entry, the tested form may be a part): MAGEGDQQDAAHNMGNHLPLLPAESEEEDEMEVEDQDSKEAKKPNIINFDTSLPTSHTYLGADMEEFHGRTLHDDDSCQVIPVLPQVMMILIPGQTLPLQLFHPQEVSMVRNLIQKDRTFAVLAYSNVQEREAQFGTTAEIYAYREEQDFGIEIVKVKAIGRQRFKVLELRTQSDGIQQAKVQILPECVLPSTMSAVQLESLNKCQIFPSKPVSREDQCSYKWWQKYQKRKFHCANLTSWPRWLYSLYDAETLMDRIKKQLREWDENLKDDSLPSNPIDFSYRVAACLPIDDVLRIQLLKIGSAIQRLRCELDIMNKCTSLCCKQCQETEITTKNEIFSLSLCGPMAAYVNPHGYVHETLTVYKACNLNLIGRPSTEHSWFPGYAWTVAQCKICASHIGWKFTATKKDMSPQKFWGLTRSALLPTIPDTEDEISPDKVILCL
T2 sequence (P17931 whole entry): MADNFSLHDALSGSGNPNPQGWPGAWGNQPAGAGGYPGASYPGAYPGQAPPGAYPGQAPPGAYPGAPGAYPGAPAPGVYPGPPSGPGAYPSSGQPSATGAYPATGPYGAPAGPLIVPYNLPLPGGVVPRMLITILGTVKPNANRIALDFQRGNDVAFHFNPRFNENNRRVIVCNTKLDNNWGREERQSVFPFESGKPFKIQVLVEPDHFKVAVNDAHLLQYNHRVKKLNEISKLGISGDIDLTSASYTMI
Chain of His-tagged recombinant human Gal-3 (hGal-3) (P17931 whole entry): as above

| SMILES | pIC50 [1] | pIC50 [2] | pIC50 [3, 4] | pIC50 [3, 5] |
| --- | --- | --- | --- | --- |
| Cc1nc([C@@H]2O[C@H](CO)[C@H](O)[C@H](n3cc(-c4cc(F)c(Cl)c(F)c4)nn3)[C@H]2OCC(=O)NCCOCCOCCOCCNC(=O)c2ccc3c(c2)C(=O)N(C2CCC(=O)NC2=O)C3=O)n(-c2cc(Cl)ccc2C(F)(F)F)n1 (some centres unmarked) [Example 13] | 6.09 | 7.18 | – | – |
| Cc1nc([C@@H]2O[C@H](CO)[C@H](O)[C@H](n3cc(-c4cc(F)c(Cl)c(F)c4)nn3)[C@H]2OCC(=O)N2CC(COc3ccc(C(=O)Nc4ccc5c(c4)CN(C4CCC(=O)NC4=O)C5=O)cc3)C2)n(-c2cc(Cl)ccc2C(F)(F)F)n1 (stereo partly drawn) [Example 7, 4-((1-(2-(((2S,3R,4S,5R,6R)-2-(1-(5-Chloro-2-(trifluoromethyl)phenyl)-3-methyl-1H-1,2,4-triazol-5-yl)-4-(4-(4-chloro-3,5-difluorophenyl)-1H-1,2,3-triazol-1-yl)-5-hydroxy-6-(hydroxymethyl)tetrahydro-2H-pyran-3-yl)oxy)acetyl)azetidin-3-yl)methoxy)-N-(2-(2,6-dioxopiperidin-3-yl)-1-oxoisoindolin-5-yl)benzamide] | 6.22 | 7.25 | – | – |
| Cc1nc([C@@H]2O[C@H](CO)[C@H](O)[C@H](n3cc(-c4cc(F)c(Cl)c(F)c4)nn3)[C@H]2OCC(=O)N(CCl)CCCOc2ccc(C(=O)Nc3ccc4c(c3)CN(C3CCC(=O)NC3=O)C4=O)cc2)n(-c2cc(Cl)ccc2C(F)(F)F)n1 (some centres unmarked) [Example 24] | 5.67 | 6.67 | – | – |
| Cc1nc([C@@H]2O[C@H](CO)[C@H](O)[C@H](n3cc(-c4cc(F)c(Cl)c(F)c4)nn3)[C@H]2OCC(=O)N2Cc3ccc(C(=O)Nc4ccc5c(c4)CN(C4CCC(=O)NC4=O)C5=O)cc3C2)n(-c2cc(Cl)ccc2C(F)(F)F)n1 (some centres unmarked) [Example 19] | 7.77 | 7.29 | – | – |
| Cc1nc([C@@H]2O[C@H](CO)[C@H](O)[C@H](n3cc(-c4cc(F)c(Cl)c(F)c4)nn3)[C@H]2OCC(=O)NCc2ccc(C(=O)Nc3ccc4c(c3)CN(C3CCC(=O)NC3=O)C4=O)cc2)n(-c2cc(Cl)ccc2C(F)(F)F)n1 (stereo partly drawn) [Example 2, 4-((2-(((2S,3R,4S,5R,6R)-2-(1-(5-Chloro-2-(trifluoromethyl)phenyl)-3-methyl-1H-1,2,4-triazol-5-yl)-4-(4-(4-chloro-3,5-difluorophenyl)-1H-1,2,3-triazol-1-yl)-5-hydroxy-6-(hydroxymethyl)tetrahydro-2H-pyran-3-yl)oxy)acetamido)methyl)-N-(2-(2,6-dioxopiperidin-3-yl)-1-oxoisoindolin-5-yl)benzamide] | 6.57 | 6.96 | – | – |
| Cc1nc([C@@H]2O[C@H](CO)[C@H](O)[C@H](n3cc(-c4cc(F)c(Cl)c(F)c4)nn3)[C@H]2OCC(=O)N2CC(COc3ccc(C(=O)Nc4ccc5c(c4)CN(C4CCC(=O)N(C)C4=O)C5=O)cc3)C2)n(-c2cc(Cl)ccc2C(F)(F)F)n1 (stereo partly drawn) [Example 9, 4-((1-(2-(((2S,3R,4S,5R,6R)-2-(1-(5-Chloro-2-(trifluoromethyl)phenyl)-3-methyl-1H-1,2,4-triazol-5-yl)-4-(4-(4-chloro-3,5-difluorophenyl)-1H-1,2,3-triazol-1-yl)-5-hydroxy-6-(hydroxymethyl)tetrahydro-2H-pyran-3-yl)oxy)acetyl)azetidin-3-yl)methoxy)-N-(2-(1-methyl-2,6-dioxopiperidin-3-yl)-1-oxoisoindolin-5-yl)benzamide] | 5.05 | 7.07 | – | – |
| Cc1nc([C@@H]2O[C@H](CO)[C@H](O)[C@H](n3cc(-c4cc(F)c(Cl)c(F)c4)nn3)[C@H]2OCC(=O)NCCOCC(=O)N[C@H](C(=O)N2C[C@H](O)C[C@H]2C(=O)NCc2ccc(-c3scnc3C)cc2)C(C)(C)C)n(-c2cc(Cl)ccc2C(F)(F)F)n1 [Example 20] | – | 7.30 | 7.29 | 7.38 |
| Cc1nc([C@@H]2O[C@H](CO)[C@H](O)[C@H](n3cc(-c4cc(F)c(Cl)c(F)c4)nn3)[C@H]2OCC(=O)NCCOCCOCCNC(=O)c2ccc3c(c2)C(=O)N(C2CCC(=O)N(C)C2=O)C3=O)n(-c2cc(Cl)ccc2C(F)(F)F)n1 (some centres unmarked) [Example 16] | < 4.30 | 7.16 | – | – |
| Cc1nc([C@@H]2O[C@H](CO)[C@H](O)[C@H](n3cc(-c4cc(F)c(Cl)c(F)c4)nn3)[C@H]2OCC(=O)N2CC3(CC(COc4ccc(C(=O)Nc5ccc6c(c5)CN(C5CCC(=O)NC5=O)C6=O)cc4)C3)C2)n(-c2cc(Cl)ccc2C(F)(F)F)n1 (some centres unmarked) [Example 29] | 6.46 | 6.80 | – | – |
| Cc1nc([C@@H]2O[C@H](CO)[C@H](O)[C@H](n3cc(-c4cc(F)c(Cl)c(F)c4)nn3)[C@H]2OCC(=O)NCCOCC(=O)NCc2ccc(S(=O)(=O)Nc3ccc(C)c4c(C#N)c[nH]c34)cc2)n(-c2cc(Cl)ccc2C(F)(F)F)n1 [Example 22] | – | 6.53 | 5.47 | 5.48 |
| Cc1nc([C@@H]2O[C@H](CO)[C@H](O)[C@H](n3cc(-c4cc(F)c(Cl)c(F)c4)nn3)[C@H]2OCC(=O)NCCOCCOCCNC(=O)c2ccc3c(c2)C(=O)N(C2CCC(=O)NC2=O)C3=O)n(-c2cc(Cl)ccc2C(F)(F)F)n1 (some centres unmarked) [Example 14] | 5.82 | 7.60 | – | – |
| Cc1nc([C@@H]2O[C@H](CO)[C@H](O)[C@H](n3cc(-c4cc(F)c(Cl)c(F)c4)nn3)[C@H]2OCC(=O)NCCOCC(=O)Nc2ccc3c(c2)CN(C2CCC(=O)NC2=O)C3=O)n(-c2cc(Cl)ccc2C(F)(F)F)n1 (stereo partly drawn) [Example 1, 2-(((2S,3R,4S,5R,6R)-2-(1-(5-Chloro-2-(trifluoromethyl)phenyl)-3-methyl-1H-1,2,4-triazol-5-yl)-4-(4-(4-chloro-3,5-difluorophenyl)-1H-1,2,3-triazol-1-yl)-5-hydroxy-6-(hydroxymethyl)tetrahydro-2H-pyran-3-yl)oxy)-N-(2-(2-((2-(2,6-dioxopiperidin-3-yl)-1-oxoisoindolin-5-yl)amino)-2-oxoethoxy)ethyl)acetamide] | 6.11 | 7.09 | – | – |
| Cc1nc([C@@H]2O[C@H](CO)[C@H](O)[C@H](n3cc(-c4cc(F)c(Cl)c(F)c4)nn3)[C@H]2OCC(=O)N[C@H]2C[C@@H](Oc3ccc(C(=O)N[C@H](C(=O)N4C[C@H](O)C[C@H]4C(=O)NCc4ccc(-c5scnc5C)cc4)C(C)(C)C)nc3)C2)n(-c2cc(Cl)ccc2C(F)(F)F)n1 [Example 33] | – | 6.00 | < 4.52 | < 4.52 |
